Assay: Relative bioavailability and food effect of 200 mg LCZ696 mini-tablets vs 200 mg FMI tablet; randomized, open-label, single dose, crossover study;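 also: crossover design with one dose per period, healthy volunteers, 40 enrolled and 39 completing the study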
Conditions: label = analyte; for extent of absorption (AUCs) with a high fat meal: LCZ696 200 mg mini-tablets sprinkled on pudding; for Cmax, geometric mean ratio, Mini tablets vs FMI tablet (Fasting) / AUCinf, geometric mean ratio, Mini tablets vs FMI tablet (Fasting) / AUClast, geometric mean ratio, Mini tablets vs FMI tablet (Fasting) / Cmax, geometric mean ratio, Pudding + High fat meal vs Pudding (Mini tablets) / AUCinf, geometric mean ratio, Pudding + High fat meal vs Pudding (Mini tablets) / AUClast, geometric mean ratio, Pudding + High fat meal vs Pudding (Mini tablets) / Cmax, geometric mean ratio, Pudding vs fasting (Mini tablets) / AUCinf, geometric mean ratio, Pudding vs fasting (Mini tablets) / AUClast, geometric mean ratio, Pudding vs fasting (Mini tablets): LCZ696 200 mg single oral dose, healthy subjects; for Cmax, geometric mean ratio, Mini tablets vs FMI tablet (Fasting) / AUCinf, geometric mean ratio, Mini tablets vs FMI tablet (Fasting) / AUClast, geometric mean ratio, Mini tablets vs FMI tablet (Fasting): test minitablets / reference FMI tablet; for Cmax, geometric mean ratio, Mini tablets vs FMI tablet (Fasting) / Cmax, geometric mean ratio, Pudding + High fat meal vs Pudding (Mini tablets) / Cmax, geometric mean ratio, Pudding vs fasting (Mini tablets): parameter head prints ng/ml; for AUCinf, geometric mean ratio, Mini tablets vs FMI tablet (Fasting) / AUClast, geometric mean ratio, Mini tablets vs FMI tablet (Fasting) / AUCinf, geometric mean ratio, Pudding + High fat meal vs Pudding (Mini tablets) / AUClast, geometric mean ratio, Pudding + High fat meal vs Pudding (Mini tablets) / AUCinf, geometric mean ratio, Pudding vs fasting (Mini tablets) / AUClast, geometric mean ratio, Pudding vs fasting (Mini tablets): parameter head prints ng·h/ml; for Cmax, geometric mean ratio, Pudding + High fat meal vs Pudding (Mini tablets) / AUCinf, geometric mean ratio, Pudding + High fat meal vs Pudding (Mini tablets) / AUClast, geometric mean ratio, Pudding + High fat meal vs Pudding (Mini tablets): test minitablets on pudding + high fat meal / reference minitablets with pudding; for Cmax, geometric mean ratio, Pudding vs fasting (Mini tablets) / AUCinf, geometric mean ratio, Pudding vs fasting (Mini tablets) / AUClast, geometric mean ratio, Pudding vs fasting (Mini tablets): test minitablets with pudding / reference minitablets; for decrease of Cmax with a high fat meal: single dose LCZ696 200 mg mini-tablets sprinkled on pudding

Structure (SMILES): CCOC(=O)[C@H](C)C[C@@H](Cc1ccc(-c2ccccc2)cc1)NC(=O)CCC(=O)O [Sacubitril, (2R,4S)-5-biphenyl-4-yl-4-(3-carboxy-propionylamino)-2-methyl-pentanoic acid ethyl ester]
- extent of absorption (AUCs) with a high fat meal: comparable
- Cmax, geometric mean ratio, Mini tablets vs FMI tablet (Fasting): 0.94
- AUCinf, geometric mean ratio, Mini tablets vs FMI tablet (Fasting): 0.96
- AUClast, geometric mean ratio, Mini tablets vs FMI tablet (Fasting): 0.96
- Cmax, geometric mean ratio, Pudding + High fat meal vs Pudding (Mini tablets): 0.4
- AUCinf, geometric mean ratio, Pudding + High fat meal vs Pudding (Mini tablets): 1.01
- AUClast, geometric mean ratio, Pudding + High fat meal vs Pudding (Mini tablets): 1.00
- Cmax, geometric mean ratio, Pudding vs fasting (Mini tablets): 1.00
- AUCinf, geometric mean ratio, Pudding vs fasting (Mini tablets): 1.04
- AUClast, geometric mean ratio, Pudding vs fasting (Mini tablets): 1.04
- decrease of Cmax with a high fat meal: 60%

Structure (SMILES): CCCCC(=O)N(Cc1ccc(-c2ccccc2-c2nnn[nH]2)cc1)[C@H](C(=O)O)C(C)C [Valsartan, S—N-valeryl-N-{[2′-(1H-tetrazole-5-yl)-biphenyl-4-yl]-methyl}-valine]
- Cmax, geometric mean ratio, Mini tablets vs FMI tablet (Fasting): 1.09
- AUCinf, geometric mean ratio, Mini tablets vs FMI tablet (Fasting): 1.11
- AUClast, geometric mean ratio, Mini tablets vs FMI tablet (Fasting): 1.11
- Cmax, geometric mean ratio, Pudding + High fat meal vs Pudding (Mini tablets): 0.43
- AUCinf, geometric mean ratio, Pudding + High fat meal vs Pudding (Mini tablets): 0.6
- AUClast, geometric mean ratio, Pudding + High fat meal vs Pudding (Mini tablets): 0.59
- Cmax, geometric mean ratio, Pudding vs fasting (Mini tablets): 1.02
- AUCinf, geometric mean ratio, Pudding vs fasting (Mini tablets): 1.02
- AUClast, geometric mean ratio, Pudding vs fasting (Mini tablets): 1.04
- decrease of Cmax with a high fat meal: 57%

Structure (SMILES): C[C@H](C[C@@H](Cc1ccc(-c2ccccc2)cc1)NC(=O)CCC(=O)O)C(=O)O [LBQ657, (2R,4S)-5-biphenyl-4-yl-4-(3-carboxy-propionylamino)-2-methyl-pentanoic acid]
- extent of absorption (AUCs) with a high fat meal: comparable
- Cmax, geometric mean ratio, Mini tablets vs FMI tablet (Fasting): 0.95
- AUCinf, geometric mean ratio, Mini tablets vs FMI tablet (Fasting): 0.98
- AUClast, geometric mean ratio, Mini tablets vs FMI tablet (Fasting): 0.98
- Cmax, geometric mean ratio, Pudding + High fat meal vs Pudding (Mini tablets): 0.81
- AUCinf, geometric mean ratio, Pudding + High fat meal vs Pudding (Mini tablets): 1.02
- AUClast, geometric mean ratio, Pudding + High fat meal vs Pudding (Mini tablets): 1.02
- Cmax, geometric mean ratio, Pudding vs fasting (Mini tablets): 0.99
- AUCinf, geometric mean ratio, Pudding vs fasting (Mini tablets): 1.01
- AUClast, geometric mean ratio, Pudding vs fasting (Mini tablets): 1.01
- decrease of Cmax with a high fat meal: 19%

— patent US10722471B2, “Galenic formulations of organic compounds” (Novartis AG, priority 2016, dated 2020)
